Laboratory results published in patent US20260355196A1, “INHIBITORS AND DEGRADERS OF PIP4K PROTEIN” (Larkspur Biosciences, Inc., priority 2023, published 2026).

target: T1, PIP4K2C (Homo sapiens, UniProt Q8TBX8); experiment: Enzyme Binding Assay (KINOMEscan): active site-directed competition binding to an immobilized ligand; parameters: purchased Eurofins DiscoverX, San Diego, CA 87-0007-1094; details: 11-point dose response, duplicate, top concentration 5 micromolar; read-out: Pip4k2c Kd: IC50
T1 sequence (Q8TBX8 1-421): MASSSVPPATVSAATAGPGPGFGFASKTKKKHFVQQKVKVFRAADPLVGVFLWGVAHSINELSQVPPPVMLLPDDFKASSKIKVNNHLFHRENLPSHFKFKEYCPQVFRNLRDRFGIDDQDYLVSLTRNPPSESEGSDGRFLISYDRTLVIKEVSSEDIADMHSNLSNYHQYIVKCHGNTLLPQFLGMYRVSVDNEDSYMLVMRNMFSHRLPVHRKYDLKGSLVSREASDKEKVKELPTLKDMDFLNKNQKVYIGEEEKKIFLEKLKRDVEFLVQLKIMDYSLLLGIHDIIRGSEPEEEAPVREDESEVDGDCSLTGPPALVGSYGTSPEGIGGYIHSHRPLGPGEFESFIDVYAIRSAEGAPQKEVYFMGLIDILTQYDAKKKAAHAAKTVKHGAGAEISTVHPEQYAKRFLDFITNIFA
Method: Example B-1: Enzyme Binding Assays (KINOMEscan)
PIP4K2C binding constants disclosed herein were determined using the proprietary Human PIP4K2C binding assay (Catalog number 87-0007-1094, Eurofins DiscoverX, San Diego, CA). This assay measures active site-directed competition binding to an immobilized ligand (see https://doi.org/10.1038/nbt1068, herein incorporated by reference in its entirety). Experiments were conducted using an 11-point dose response curve, in duplicate, with a top starting concentration of 5 micromolar; the Levenberg-Marquardt algorithm was used to fit a Hill equation to dose-response data to calculate IC50 values (see Table 5).

`NC(=O)[C@H]1CC[C@H](Nc2ncc(F)c(-c3cccc(N4CCOCC4=O)n3)n2)CC1` [Compound 271, trans-4-((5-fluoro-4-(6-(3-oxomorpholino)pyridin-2-yl)pyrimidin-2-yl)amino)cyclohexane-1-carboxamide] and `NC(=O)[C@H]1CC[C@H](Nc2ncc(F)c(-c3cccc(N4CCCOC4=O)n3)n2)CC1` [Compound 621, trans-4-((5-fluoro-4-(6-(2-oxo-1,3-oxazinan-3-yl)pyridin-2-yl)pyrimidin-2-yl)amino)cyclohexane-1-carboxamide] cannot be ordered by IC50: under 500 nM for the first, under 500 nM for the second.

First: CNC(=O)[C@H]1CC[C@H](Nc2ncc(Cl)c(-c3cc(C4CC4)[nH]n3)n2)CC1 [Compound 144, trans-(1r,4r)-4-((5-chloro-4-(5-cyclopropyl-1H-pyrazol-3-yl)pyrimidin-2-yl)amino)-N-methylcyclohexane-1-carboxamide]
Second: CNC(=O)[C@H]1C[C@@H](Nc2ncc(Cl)c(-c3cc(C4CC4)[nH]n3)n2)C1 [Compound 161, cis-3-((5-chloro-4-(5-cyclopropyl-1H-pyrazol-3-yl)pyrimidin-2-yl)amino)-N-methylcyclobutane-1-carboxamide]
The IC50 of the first is higher: 1000 to 5000 nM for the first, under 500 nM for the second. The second is the more potent here.

First: NC(=O)[C@@H]1CCC[C@H](Nc2ncc(F)c(C3CCCN(c4ccc(F)cc4)C3)n2)C1 (relative stereo) [Compound 91, cis-3-((5-fluoro-4-(1-(4-fluorophenyl)piperidin-3-yl)pyrimidin-2-yl)amino)cyclohexane-1-carboxamide]
Second: NC(=O)[C@H]1CCC[C@@H](Nc2ncc(F)c(-c3ccn(-c4ccc(F)cc4)n3)n2)C1 (relative stereo) [Compound 42, cis-3-((5-fluoro-4-(1-(4-fluorophenyl)-1H-pyrazol-3-yl)pyrimidin-2-yl)amino)cyclohexane-1-carboxamide]
The IC50 of the first is lower: under 500 nM for the first, 1000 to 5000 nM for the second. The first is the more potent here.

`CC(=O)N1CCC(Nc2ncc(F)c(-c3cccc(N4CCOCC4=O)c3)n2)CC1` [Compound 206, 4-(3-(2-((1-acetylpiperidin-4-yl)amino)-5-fluoropyrimidin-4-yl)phenyl)morpholin-3-one] and `CC(=O)N1CCC(Nc2ncc(F)c(-c3cccc(N4CCOCC4=O)n3)n2)CC1` [Compound 630, 4-(6-(2-((1-acetylpiperidin-4-yl)amino)-5-fluoropyrimidin-4-yl)pyridin-2-yl)morpholin-3-one] cannot be ordered by IC50: under 500 nM for the first, under 500 nM for the second.

First: CC(=O)N1CCCC(Nc2ncc(Cl)c(-c3ccc(F)cc3)n2)C1 (stereo not shown) [Compound 26, 1-(3-((5-chloro-4-(4-fluorophenyl)pyrimidin-2-yl)amino)piperidin-1-yl)ethan-1-one]
Second: CC(=O)N1CCC[C@H](Nc2ncc(Cl)c(-c3cccc(-n4ccccc4=O)c3)n2)C1 [Compound 129, (S)-1-(3-(2-((1-acetylpiperidin-3-yl)amino)-5-chloropyrimidin-4-yl)phenyl)pyridin-2(1H)-one]
The IC50 of the first is higher: 500 to 1000 nM for the first, under 500 nM for the second. The second is the more potent here.

`CC(=O)N1CCC(Nc2ncc(Cl)c(-c3ccn(C4CCCCC4)n3)n2)CC1` [Compound 109, 1-(4-((5-chloro-4-(1-cyclohexyl-1H-pyrazol-3-yl)pyrimidin-2-yl)amino)piperidin-1-yl)ethan-1-one] and `CC(=O)N1CCC(Nc2ncc(Cl)c(C3CCCN(C(=O)c4ccc(F)cc4)C3)n2)CC1` (stereo not shown) [Compound 125, 1-(4-((5-chloro-4-(1-(4-fluorobenzoyl)piperidin-3-yl)pyrimidin-2-yl)amino)piperidin-1-yl)ethan-1-one] fall in the same range of IC50: 1000 to 5000 nM for the first, 1000 to 5000 nM for the second.

Compared with `CNC(=O)[C@H]1C[C@@H](Nc2ncc(Cl)c(-c3cccc(-c4ccc[nH]c4=O)c3)n2)C1` [Compound 156, cis-3-((5-chloro-4-(3-(2-oxo-1,2-dihydropyridin-3-yl)phenyl)pyrimidin-2-yl)amino)-N-methylcyclobutane-1-carboxamide], `CNC(=O)[C@H]1C[C@H](Nc2ncc(Cl)c(-c3cnn(-c4cc[nH]c(=O)c4)c3)n2)C1` [Compound 133, trans-(1r,3r)-3-((5-chloro-4-(1-(2-oxo-1,2-dihydropyridin-4-yl)-1H-pyrazol-4-yl)pyrimidin-2-yl)amino)-N-methylcyclobutane-1-carboxamide] is higher in IC50: under 500 nM for the first, 500 to 1000 nM for the second. The first is the more potent here.

`CC(=O)N[C@H]1CC[C@H](Nc2ncc(F)c(-c3cccc(C(=O)N4CC[C@H](O)C4)c3)n2)CC1` [Compound 252, trans-N-[4-[[5-fluoro-4-[3-[(3S)-3-hydroxypyrrolidine-1-carbonyl]phenyl]pyrimidin-2-yl]amino]cyclohexyl]acetamide] and `CC(=O)N[C@H]1CC[C@H](Nc2ncc(F)c(-c3ccnc(N4CCOCC4=O)c3)n2)CC1` [Compound 272, trans-N-(4-((5-fluoro-4-(2-(3-oxomorpholino)pyridin-4-yl)pyrimidin-2-yl)amino)cyclohexyl)acetamide] cannot be ordered by IC50: under 500 nM for the first, under 500 nM for the second.

`CC(=O)N1CCC(Nc2ncc(F)c(-c3ccnc(C4(O)CCC4)c3)n2)CC1` [Compound 232, 1-(4-((5-fluoro-4-(2-(1-hydroxycyclobutyl)pyridin-4-yl)pyrimidin-2-yl)amino)piperidin-1-yl)ethan-1-one] and `NC(=O)[C@H]1CC[C@H](Nc2ncc(F)c(-c3ccnc(N4CCOC4=O)c3)n2)CC1` [Compound 263, trans-(1r,4r)-4-((5-fluoro-4-(2-(2-oxooxazolidin-3-yl)pyridin-4-yl)pyrimidin-2-yl)amino)cyclohexane-1-carboxamide] cannot be ordered by IC50: under 500 nM for the first, under 500 nM for the second.

`CC(=O)N[C@H]1CC[C@H](Nc2ncc(F)c(-c3cccc(-c4ccccc4)c3)n2)CC1` [Compound 609, trans-N-(4-((4-([1,1′-biphenyl]-3-yl)-5-fluoropyrimidin-2-yl)amino)cyclohexyl)acetamide] and `NC(=O)[C@@H]1CCC[C@H](Nc2ncc(F)c(-c3cccc(-c4ccccc4)c3)n2)C1` [Compound 612, (1R,3S)-3-((4-([1,1′-biphenyl]-3-yl)-5-fluoropyrimidin-2-yl)amino) cyclohexane-1-carboxamide] cannot be ordered by IC50: under 500 nM for the first, under 500 nM for the second.

`NC(=O)[C@H]1CC[C@H](Nc2ncc(F)c(-c3cccc(C4CC4)c3)n2)CC1` [Compound 618, trans-(1r,4r)-4-((4-(3-cyclopropylphenyl)-5-fluoropyrimidin-2-yl)amino)cyclohexane-1-carboxamide] and `NC(=O)[C@H]1CCC[C@@H](Nc2ncc(F)c(-c3cccc(C4(O)COC4)c3)n2)C1` (relative stereo) [Compound 173, cis-3-((5-fluoro-4-(3-(3-hydroxyoxetan-3-yl)phenyl)pyrimidin-2-yl)amino)cyclohexane-1-carboxamide] cannot be ordered by IC50: under 500 nM for the first, under 500 nM for the second.

`CC(=O)N1CCC(C(=O)N2CCC(Nc3ncc(Cl)c(-c4cccc(-c5ccccc5)c4)n3)CC2)CC1` [Compound 4, 1-(4-(4-((4-([1,1′-biphenyl]-3-yl)-5-chloropyrimidin-2-yl)amino)piperidine-1-carbonyl)piperidin-1-yl)ethan-1-one] and `CN1CCC(CC(=O)N2CCC(Nc3ncc(Cl)c(-c4cccc(-c5ccccc5)c4)n3)CC2)CC1` [Compound 9, 1-(4-((4-([1,1′-biphenyl]-3-yl)-5-chloropyrimidin-2-yl)amino)piperidin-1-yl)-2-(1-methylpiperidin-4-yl)ethan-1-one] cannot be ordered by IC50: under 500 nM for the first, under 500 nM for the second.

First: CNC(=O)[C@H]1CC[C@H](Nc2ncc(Cl)c(-c3ccnc(-c4ccc(F)cc4)c3)n2)CC1 [Compound 160, trans-(1r,4r)-4-((5-chloro-4-(2-(4-fluorophenyl)pyridin-4-yl)pyrimidin-2-yl)amino)-N-methylcyclohexane-1-carboxamide]
Second: NC(=O)C1CCC(Nc2ncc(Cl)c(-c3cccc(-c4ccccc4)c3)n2)CC1 (stereo not shown) [Compound 1, 4-((4-([1,1′-biphenyl]-3-yl)-5-chloropyrimidin-2-yl)amino)cyclohexane-1-carboxamide]
The IC50 of the first is lower: under 500 nM for the first, 500 to 1000 nM for the second.

`CC(=O)N[C@H]1CC[C@H](Nc2ncc(Cl)c(C3CCCN(C(=O)C4CC4)C3)n2)CC1` (stereo partly drawn) [Compound 100, trans-N-(4-((5-chloro-4-(1-(cyclopropanecarbonyl)piperidin-3-yl)pyrimidin-2-yl)amino)cyclohexyl)acetamide] and `CC(=O)N[C@H]1CC[C@H](Nc2ncc(Cl)c(-c3cnn(C4CC4)c3)n2)CC1` [Compound 116, trans-N-((1r,4r)-4-((5-chloro-4-(1-cyclopropyl-1H-pyrazol-4-yl)pyrimidin-2-yl)amino)cyclohexyl)acetamide] cannot be ordered by IC50: under 500 nM for the first, under 500 nM for the second.

`NC(=O)[C@@H]1CCC[C@H](Nc2ncc(F)c(-c3cccc(-n4cc(C(F)(F)F)ccc4=O)c3)n2)C1` [Compound 208, (1R,3S)-3-((5-fluoro-4-(3-(2-oxo-5-(trifluoromethyl)pyridin-1 (2H)-yl)phenyl)pyrimidin-2-yl)amino)cyclohexane-1-carboxamide] and `NC(=O)C1CCCC(Nc2ncc(F)c(-c3cccc(-n4ccccc4=O)c3)n2)C1` (stereo not shown) [Compound 40, 3-[[5-fluoro-4-[3-(2-oxo-1-pyridyl)phenyl]pyrimidin-2-yl]amino]cyclohexanecarboxamide] cannot be ordered by IC50: under 500 nM for the first, under 500 nM for the second.

`CN1CCC(Nc2ncc(Cl)c(-c3cccc(-c4ccccc4)c3)n2)CC1=O` (stereo not shown) [Compound 16, 4-((4-([1,1′-biphenyl]-3-yl)-5-chloropyrimidin-2-yl)amino)-1-methylpiperidin-2-one] was tested, and the IC50 was under 500 nM.
